Laboratory results as given in ChEMBL document CHEMBL4354814 (J Med Chem, 2019).
Active and inactive are the calls of the source. The calls are words filed in the database; no cut-off is given here.

What was measured:
Acetylcholinesterase [1] = biological target: T1, Acetylcholinesterase (Homo sapiens, UniProt P22303)
Description: Inhibition of recombinant human AChE assessed as inhibition constant for enzyme-inhibitor complex using acetylthiocholine iodide as substrate preincubated for 20 mins followed by substrate addition and measured for 3 mins by spectrophotometry based Lineweaver-Burk plot analysis

Acetylcholinesterase [2] = biological target: T1, Acetylcholinesterase; remark: listed apart in the source
Description: Inhibition of recombinant human AChE assessed as inhibition constant for enzyme-substrate-inhbitor complex using acetylthiocholine iodide as substrate preincubated for 20 mins followed by substrate addition and measured for 3 mins by spectrophotometry based Lineweaver-Burk plot analysis

Cannabinoid receptor 2 [3] = biological target: T2, Cannabinoid receptor 2 (Homo sapiens, UniProt P34972); test: Agonist activity at CB2R in human U266 cells assessed as reduction in STAT3 gene expression at 50 uM pretreated for 30 mins with AM630 incubated for 2 hrs by qRT-PCR analysis; type: cell-based
T2 sequence (P34972 whole entry): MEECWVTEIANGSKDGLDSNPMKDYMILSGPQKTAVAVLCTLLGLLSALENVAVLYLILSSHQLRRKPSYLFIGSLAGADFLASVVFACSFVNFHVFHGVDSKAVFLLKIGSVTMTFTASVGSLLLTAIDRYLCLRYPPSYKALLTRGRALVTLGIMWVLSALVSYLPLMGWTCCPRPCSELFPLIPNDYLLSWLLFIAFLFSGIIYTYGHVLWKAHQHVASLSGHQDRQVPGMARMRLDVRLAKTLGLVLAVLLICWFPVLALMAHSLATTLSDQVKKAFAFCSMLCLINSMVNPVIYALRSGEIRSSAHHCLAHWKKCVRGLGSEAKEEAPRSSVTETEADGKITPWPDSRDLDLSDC

Cannabinoid receptor 2 [4] = biological target: T2, Cannabinoid receptor 2; test: Agonist activity at CB2R in human U266 cells assessed as reduction in MIF gene expression at 50 uM incubated for 2 hrs by qRT-PCR analysis; type: cell-based
Cannabinoid receptor 2 [5] = biological target: T2, Cannabinoid receptor 2; test: Agonist activity at CB2R in human U266 cells assessed as reduction in MIF gene expression at 50 uM pretreated for 30 mins with AM630 and incubated for 2 hrs by qRT-PCR analysis; type: cell-based
Cannabinoid receptor 2 [6] = biological target: T2, Cannabinoid receptor 2; test: Agonist activity at CB2R in human U266 cells assessed as reduction in STAT3 gene expression at 50 uM incubated for 2 hrs by qRT-PCR analysis; type: cell-based
[7] = biological target: Cannabinoid receptor 1 (Homo sapiens) (UniProt P21554); test: Agonist activity at human CB1R expressed in CHO-K1 cells assessed as increase in intracellular calcium mobilization by calcein4-AM dye based fluorescence assay; type: functional, cell-based
Chain of Cannabinoid receptor 1 (Homo sapiens) (P21554 whole entry): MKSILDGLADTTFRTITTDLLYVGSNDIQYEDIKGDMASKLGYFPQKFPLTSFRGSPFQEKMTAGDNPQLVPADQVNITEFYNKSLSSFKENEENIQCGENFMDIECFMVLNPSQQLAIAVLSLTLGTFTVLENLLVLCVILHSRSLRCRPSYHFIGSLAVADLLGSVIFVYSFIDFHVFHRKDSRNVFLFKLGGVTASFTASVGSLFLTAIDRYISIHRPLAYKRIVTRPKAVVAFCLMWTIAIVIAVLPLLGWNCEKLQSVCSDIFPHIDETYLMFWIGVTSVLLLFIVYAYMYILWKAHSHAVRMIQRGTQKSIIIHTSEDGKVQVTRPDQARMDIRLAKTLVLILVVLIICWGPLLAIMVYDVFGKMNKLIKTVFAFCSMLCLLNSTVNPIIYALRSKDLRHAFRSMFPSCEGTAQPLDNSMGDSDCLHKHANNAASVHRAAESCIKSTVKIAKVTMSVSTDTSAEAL

Cannabinoid receptor 2 [8] = biological target: T2, Cannabinoid receptor 2; test: Agonist activity at human CB2R expressed in CHO-K1 cells assessed as increase in intracellular calcium mobilization by calcein4-AM dye based fluorescence assay relative to control; type: functional, cell-based
Cannabinoid receptor 2 [9] = biological target: T2, Cannabinoid receptor 2
[10] = biological target: Cholinesterase (Homo sapiens) (UniProt P06276); test: Inhibition of human BChE at 10 uM using butyrylthiocholine iodide as substrate preincubated for 20 mins followed by substrate addition and measured for 3 mins by spectrophotometry based Ellman's method relative to control
Chain of Cholinesterase (Homo sapiens) (P06276 whole entry): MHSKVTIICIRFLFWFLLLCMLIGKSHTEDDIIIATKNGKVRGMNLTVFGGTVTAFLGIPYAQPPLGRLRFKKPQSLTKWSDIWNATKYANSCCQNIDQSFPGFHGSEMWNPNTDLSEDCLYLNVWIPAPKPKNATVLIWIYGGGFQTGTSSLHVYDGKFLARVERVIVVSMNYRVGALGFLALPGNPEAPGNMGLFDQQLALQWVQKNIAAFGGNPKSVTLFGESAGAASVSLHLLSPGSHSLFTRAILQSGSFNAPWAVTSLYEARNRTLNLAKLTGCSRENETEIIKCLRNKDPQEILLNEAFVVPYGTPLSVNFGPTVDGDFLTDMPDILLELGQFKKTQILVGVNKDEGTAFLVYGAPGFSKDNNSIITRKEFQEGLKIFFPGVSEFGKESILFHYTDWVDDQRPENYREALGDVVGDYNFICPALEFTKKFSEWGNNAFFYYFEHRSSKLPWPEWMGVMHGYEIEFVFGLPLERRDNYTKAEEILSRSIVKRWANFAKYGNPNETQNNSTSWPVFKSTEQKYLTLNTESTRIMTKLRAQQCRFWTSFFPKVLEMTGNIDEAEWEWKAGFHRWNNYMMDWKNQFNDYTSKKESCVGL

Acetylcholinesterase [11] = biological target: T1, Acetylcholinesterase; test: Inhibition of recombinant human AChE at 10 uM using acetylthiocholine iodide as substrate preincubated for 20 mins followed by substrate addition and measured for 3 mins by spectrophotometry based Ellman's method relative to control
[12] = biological target: Cannabinoid receptor 1 (Homo sapiens) (UniProt P21554); test: Binding affinity at human CB1R expressed in CHO cells at 10 uM incubated for 3 hrs by microbeta scintillation counting relative to control; type: cell-based
Cannabinoid receptor 2 [13] = biological target: T2, Cannabinoid receptor 2; test: biochemical

T1 sequence (P22303 whole entry): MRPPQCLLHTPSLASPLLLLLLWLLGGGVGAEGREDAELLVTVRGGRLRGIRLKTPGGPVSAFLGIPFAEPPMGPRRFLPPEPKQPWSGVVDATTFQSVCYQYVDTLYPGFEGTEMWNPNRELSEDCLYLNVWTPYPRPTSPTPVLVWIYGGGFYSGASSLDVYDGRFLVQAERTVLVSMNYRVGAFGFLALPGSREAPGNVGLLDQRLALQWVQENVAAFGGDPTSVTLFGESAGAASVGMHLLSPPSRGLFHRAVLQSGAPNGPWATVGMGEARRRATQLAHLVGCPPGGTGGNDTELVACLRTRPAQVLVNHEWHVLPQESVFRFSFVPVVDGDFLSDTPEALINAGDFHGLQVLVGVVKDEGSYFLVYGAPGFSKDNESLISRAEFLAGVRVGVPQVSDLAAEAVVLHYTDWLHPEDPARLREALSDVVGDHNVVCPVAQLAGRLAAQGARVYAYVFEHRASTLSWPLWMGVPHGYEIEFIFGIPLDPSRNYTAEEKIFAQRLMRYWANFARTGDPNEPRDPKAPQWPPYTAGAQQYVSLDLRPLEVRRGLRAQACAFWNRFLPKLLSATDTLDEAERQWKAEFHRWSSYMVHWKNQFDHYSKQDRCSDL

Row | Compound | Ki (Acetylcholinesterase [1]) [nM] | Ki (Acetylcholinesterase [2]) [nM] | Activity (Cannabinoid receptor 2 [3]) | Activity (Cannabinoid receptor 2 [4]) | Activity (Cannabinoid receptor 2 [5]) | Activity (Cannabinoid receptor 2 [6]) | Activity [7] | Emax (Cannabinoid receptor 2 [8]) [%] | EC50 (Cannabinoid receptor 2 [9]) [nM] | inhibition [10] [%] | inhibition (Acetylcholinesterase [11]) [%] | Activity [12] [%] | Ki (Cannabinoid receptor 2 [13]) [nM]
1 | CCOc1ccc(Cc2nc3cc(C(=O)NCCSSCCNc4c5c(nc6ccccc46)CCCC5)ccc3n2CCC(C)C)cc1 | 16.7 | 27.9 | – | – | – | – | – | – | – | – | – | – | –
2 | CCOc1ccc(Cc2nc3cc(C(=O)NCCOCCOCCNc4c5c(nc6ccccc46)CCCC5)ccc3n2CCC(C)C)cc1 | – | – | Active | Active | Active | Active | – | – | – | – | – | – | –
3 | CCOc1ccc(Cc2nc3cc(C(=O)N(CC)CC)ccc3n2CCCCCCNc2c3c(nc4ccccc24)CCCC3)cc1 | 88.5 | 206 | Active | Active | Active | Active | inactive | 51 | – | – | – | – | –
4 | CCOc1ccc(Cc2nc3cc(C(=O)NCCCCNc4c5c(nc6ccccc46)CCCC5)ccc3n2CCC(C)C)cc1 | – | – | Active | Active | Active | Active | inactive | 39 | 911 | – | – | – | –
5 | CCOc1ccc(Cc2nc3cc(C(=O)N(CC)CC)ccc3n2CCC(C)C)cc1 | – | – | Active | Active | Active | Active | – | – | – | < 10 | < 10 | 24 | –
6 | CCOc1ccc(Cc2nc3cc(C(=O)N(CC)CC)ccc3n2CCCNc2c3c(nc4ccccc24)CCCC3)cc1 | – | – | – | – | – | – | – | – | – | – | – | – | 30700
